Test results from patent US6140311A, “Therapy by intrathecal administration of antitumor agent FUDR” (priority 1997, dated 2000).

Tests used:
[1] = Toxicity of intrathecal FUDR in normal mice (body weight, symptoms, brain histology); type: in vivo, C57/BL6 mice; conditions: for body weight variation: days 0, 2, 4, 6
Protocol: Normal C57/BL6 mice divided into groups of 20 were given FUDR by intrathecal injection at a specified dose (0, 10, 25, 50 or 100 μg/0.05ml/head) on the day of start of the experiment, 2 days, 4 days and 6 days after the start. Two months after the completion of administration of the drug, the mice were all sacrificed, and brain tissues were collected, followed by hematoxylin & eosin staining and Kluver Barrera staining for histological investigation.

203 glioma cells = assay: In vivo antitumor effect of intrathecal FUDR in mouse meningeal carcinomatosis model; set-up: species or system C57/BL6 mice; conditions: daily for 5 consecutive days, control group all dead
Protocol: Six-week-old C57/BL6 mice divided into groups of 22 or 23 were used to prepare models of meningeal carcinomatosis by directly puncturing the cisterna magna with a 26-gauge needle under anesthesia with ethyl ether and injecting transplantable 203 glioma cells (5×10^5 cells/0.05 ml). The mice were given a specified dose of FUDR by intrathecal injection (0, 25, 50, 100 or 250 μg/0.05 ml/head) daily for 5 consecutive days following the day of transplant.

[2] = test system: meningeal dissemination of malignant tumours; assay: Clinical results of intrathecal chemotherapy with FUDR via Ommaya reservoir;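 also: 13 patients with meningeal spread from various primary tumours, treatment length adjusted to disease symptoms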
Protocol: The drug was given at a dose of 1 to 10 μg/body a day, three times a week. The period of administration was varied from 3 to 8 weeks in accordance with the symptoms of the disease.

meningeal carcinomatosis = conditions: intrathecal MTX; cited from earlier work
[3] = high-dose group 100 μg/0.05 ml intrathecal
[4] = 1 to 10 μg/body a day intrathecal, three times a week, 3 to 8 weeks
[5] = per patient, before→after, CSF obtained by anterial horn of lateral ventricle
[6] = per patient, 1 to 10 μg/body a day intrathecal, three times a week, 3 to 8 weeks

Compound: O=c1[nH]c(=O)n([C@H]2C[C@H](O)[C@@H](CO)O2)cc1F [FUDR, 5-fluoro-deoxyuridine]
- neurotic manifestation during and after administration ([1]; all dose groups 10-100 μg/0.05 ml intrathecal): none of the mice developed neurotic manifestation
- histological changes in cranial nerve tissues (hematoxylin & eosin, Kluver Barrera staining) ([1]; high-dose (100 μg/0.05 ml) group, two months after completion of administration): none of the mice exhibited abnormalities in the cranial nerve tissues
- side effects such as diarrhea [1, 3]: free of side effects such as frequent diarrhea
- body weight variation [1, 3]: transient weight decrease
- body weight variation ([1]; medium-dose group 50 μg/0.05 ml intrathecal): no weight decrease whatever
- body weight variation ([1]; small-dose group 10 μg/0.05 ml intrathecal): no weight decrease whatever
- body weight variation ([1]; small-dose group 25 μg/0.05 ml intrathecal): no weight decrease whatever
- survivors on day 14 postimplantation (203 glioma cells; 100 μg/0.05 ml/head intrathecal): 21 survivors among 22 animals
- survivors on day 14 postimplantation (203 glioma cells; 250 μg/0.05 ml/head intrathecal): 21 survivors among 22 animals
- efficacy, summary of 13 patients [2, 4]: diminutions of tumor marker, CSF cells and protein in CSF
- side effects, summary of 13 patients [2, 4]: none of side effects such as toxicity to the digestive tracts, neurotoxicity, myelosuppression, and dysfunction of the liver and kidney
- Cell numbers Ventricular CSF [2, 5]: 50.fwdarw
- Protein Ventricular CSF [2, 5]: 147.fwdar
- Cell numbers Spinal CSF ([2]; per patient, before→after, CSF obtained by lumbar puncture): 144.fwdar
- Response on CSF findings [2, 6]: No and Response and No Response
- Side effects [2, 6]: None

Compound: CN(Cc1cnc2nc(N)nc(N)c2n1)c1ccc(C(=O)N[C@@H](CCC(=O)O)C(=O)O)cc1 [MTX, methotrexate]
- side effects limiting the dose (meningeal carcinomatosis): Acute neurotoxicity and retarded necrotizing encephalopathy
